Results from patent publication US9133235B2, “Macrocyclic antagonists of the motilin receptor for treatment of gastrointestinal dysmotility disorders” (Ocera Therapeutics, Inc., priority 2006, dated 2015).
Read-outs that look alike come from different tables or passages of the source.

What was measured:
[1] = Pharmacokinetic analysis in rat (i.v., s.c., p.o.); assay type: in vivo; details: for half-life: read-out: Elimination (t1/2, min)
Excerpt: I. Pharmacokinetic Analysis of Representative Compounds of the Invention
The pharmacokinetic behavior of compound of the invention can be ascertained by methods well known to those skilled in the art. (Wilkinson, G. R. “Pharmacokinetics: The Dynamics of Drug Absorption, Distribution, and Elimination” in Goodman & Gilman's The Pharmacological Basis of Therapeutics, Tenth Edition, Hardman, J. G.; Limbird, L. E., Eds., McGraw Hill, Columbus, Ohio, 2001, Chapter 1.) The following method was used to investigate the pharmacokinetic parameters (elimination half-life, total plasma clearance, etc.) for intravenous, subcutaneous and oral administration of compounds of the present invention.
Rats: male, Sprague-Dawley (˜250 g)
Rats/Treatment Group: 6 (2 subsets of 3 rats each, alternate bleeds)
Each sample of test compound was sent in solution in a formulation (such as with cyclodextrin) appropriate for dosing. It will be appreciated by one skilled in the art that appropriate modifications to this protocol can be made as required to adequately test the properties of the compound under analysis.
1. Intravenous (i.v.): 2 mg/kg
2. Subcutaneous(s.c): 2 mg/kg
Plasma Collection 1. Same protocol for all dosing groups 2. For each group, 2 subsets (A and B) of 3 rats/subset
At the time intervals indicated above, 0.7 mL of blood were collected from each animal. It is expected that this volume of blood will yield a sample of at least 0.3 mL of plasma. EDTA was used as an anti-coagulant for whole blood collection. Whole blood samples were chilled and immediately processed by centrifugation to obtain plasma.
Plasma samples were stored frozen (−70° C.) until analysis. Analytical detection of parent compound in plasma samples performed by LC-MS after an appropriate preparation protocol: extraction using solid phase extraction (SPE) cartridges (Oasis MCX, Oasis HLB) or liquid-liquid extraction.
Column: Atlantis dC18 from Waters 2.1×30 mm
A: 95% MeOH, 5% water, 0.1% TFA
B: 95% water, 5% MeOH, 0.1% TFA
The analyte was quantitated based upon a standard curve and the method validated with internal standards.

human motilin receptor = human motilin receptor (Homo sapiens, UniProt O43193); assay: Competitive radioligand binding assay (motilin receptor); parameters: purchased PerkinElmer (SignalScreen) 6110544; host or cells: CHO cells, stably transfected; membranes
Outline: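 Membranes from CHO cells stably expressing human motilin receptor were incubated 2 h at room temperature with [125I]-motilin (0.04-0.06 nM final) and compound (0.0050–10 μM) in Tris-HCl pH 7.4, MgCl2, EDTA, 0.1% BSA. Filter-bound counts were measured; 1 μM motilin defined non-specific binding; variable-slope non-linear regression.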

[2] = [125I]-motilin competition, membranes of CHO cells with human motilin receptor, read-out: Ki

Chain of human motilin receptor (O43193 whole entry): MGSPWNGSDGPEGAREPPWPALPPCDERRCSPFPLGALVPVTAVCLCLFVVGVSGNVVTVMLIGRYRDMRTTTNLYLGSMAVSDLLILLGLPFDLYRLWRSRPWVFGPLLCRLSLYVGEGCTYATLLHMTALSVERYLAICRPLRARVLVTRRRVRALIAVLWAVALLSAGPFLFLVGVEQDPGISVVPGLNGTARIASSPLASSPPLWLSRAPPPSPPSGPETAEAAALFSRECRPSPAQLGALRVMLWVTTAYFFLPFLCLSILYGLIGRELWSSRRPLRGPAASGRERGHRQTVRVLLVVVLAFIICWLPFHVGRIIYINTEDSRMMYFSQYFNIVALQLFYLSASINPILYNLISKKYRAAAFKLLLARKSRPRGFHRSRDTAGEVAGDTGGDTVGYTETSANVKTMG

Structure (SMILES) | Clearance ([1]; i.v.) [mL/min/kg] | Elimination (t1/2, min) ([1]; i.v., typical dose 2 mg/kg) [min] | Clearance ([1]; s.c.) [mL/min/kg] | Elimination (t1/2, min) ([1]; s.c., typical dose 2 mg/kg) [min] | Ki (human motilin receptor; Table 7, read-out: Binding Ki) [nM] | Elimination (t1/2, min) ([1]; p.o., typical dose 8 mg/kg, without cyclodextrin) [min] | Bioavailability (oral) ([1]; p.o., without cyclodextrin) [%] | Ki (human motilin receptor; [2]) [nM] | Clearance ([1]; male, Sprague-Dawley, plasma, iv, 1.9 mg/kg, i.v., read-out: Clearance) [mL/min/kg] | half-life ([1]; male, Sprague-Dawley, plasma, iv, typical dose 2 mg/kg) [min] | bioavailability ([1]; male, Sprague-Dawley, plasma, po, 8 mg/kg, in the presence of 10% beta-cyclodextrin) [%] | half-life ([1]; male, Sprague-Dawley, plasma, po, typical dose 8 mg/kg, in the presence of 10% beta-cyclodextrin) [min] | half-life ([1]; male, Sprague-Dawley, plasma, sc, typical dose 2 mg/kg) [min]
CC(C)[C@H]1NC(=O)[C@@H](Cc2cccc(C(F)(F)F)c2)NCCOc2ccccc2CCCNC(=O)[C@H](CN(C)C)NC1=O [Compound 502] | 57 | 102 | 79 | 146 | ≤ 10 |  |  |  |  |  |  |  | 
CCC[C@@H]1NC(=O)[C@@H](C(C)C)NC(=O)[C@@H](Cc2cccc(F)c2)N[C@@H](C)COc2ccccc2CCCNC1=O [Compound 551] | 33 | 139 |  |  | ≤ 10 | 70 to 125 | 6 | ≤ 10 |  |  |  |  | 
CCC[C@@H]1NC(=O)[C@@H](C(C)C)NC(=O)[C@@H](Cc2ccc(O)c(Cl)c2)N[C@@H](C)COc2ccccc2CCCNC1=O [Compound 552] |  |  | 39 |  |  |  |  | ≤ 10 | 45 | 24 | 10 | 307 | 103
CCC[C@@H]1NC(=O)[C@@H](C(C)C)NC(=O)[C@@H](Cc2ccc(O)c(C(C)(C)C)c2)NCCOc2ccccc2CCCNC1=O [Compound 553] |  |  |  |  | ≤ 10 |  |  | ≤ 10 |  |  |  |  | 
